The assay deals with Recombinant human KIF18A (1-467 His-tagged) protein (Homo sapiens (Human), UniProt Q8NI77). Put plainly: KIF18A Enzyme Assay: microtubule-stimulated ATPase activity (ADP-Glo). The settings on record: read-out: KIF18A ATPase IC50; 30 nM KIF18A, 30 μg/mL pig microtubules, ATP at Km 75 μM, ADP-Glo luminescence. In general terms: ADP-Glo turns the ADP formed in a reaction into a luminescent signal.
Chain of Recombinant human KIF18A (1-467 His-tagged) protein (Q8NI77 1-467): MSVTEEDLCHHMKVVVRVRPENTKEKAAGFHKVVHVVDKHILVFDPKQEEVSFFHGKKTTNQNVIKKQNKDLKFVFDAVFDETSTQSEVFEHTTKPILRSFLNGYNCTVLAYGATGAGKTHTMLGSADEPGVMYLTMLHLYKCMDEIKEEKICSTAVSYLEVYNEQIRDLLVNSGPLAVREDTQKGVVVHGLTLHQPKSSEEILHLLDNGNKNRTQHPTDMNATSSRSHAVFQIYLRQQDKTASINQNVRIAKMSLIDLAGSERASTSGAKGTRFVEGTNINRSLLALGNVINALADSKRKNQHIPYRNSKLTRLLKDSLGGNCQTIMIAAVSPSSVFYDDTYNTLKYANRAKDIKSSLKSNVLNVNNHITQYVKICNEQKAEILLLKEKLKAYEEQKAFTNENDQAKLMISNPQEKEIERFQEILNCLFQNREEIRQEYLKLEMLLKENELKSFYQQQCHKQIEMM
Chain of Recombinant human KIF18A (1-467 His-tagged) protein (P02550 whole entry partner): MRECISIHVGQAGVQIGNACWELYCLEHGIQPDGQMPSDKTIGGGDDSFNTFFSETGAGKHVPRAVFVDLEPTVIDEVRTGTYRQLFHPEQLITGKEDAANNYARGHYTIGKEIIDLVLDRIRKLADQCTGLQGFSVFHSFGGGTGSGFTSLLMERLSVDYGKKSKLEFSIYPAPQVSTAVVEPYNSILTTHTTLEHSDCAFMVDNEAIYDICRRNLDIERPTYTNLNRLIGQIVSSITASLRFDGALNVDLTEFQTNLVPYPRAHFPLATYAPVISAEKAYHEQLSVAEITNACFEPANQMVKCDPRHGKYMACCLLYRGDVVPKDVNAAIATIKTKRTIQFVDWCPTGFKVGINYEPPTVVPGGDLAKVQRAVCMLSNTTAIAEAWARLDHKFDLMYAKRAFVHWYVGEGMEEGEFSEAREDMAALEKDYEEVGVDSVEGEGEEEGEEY
Chain of Recombinant human KIF18A (1-467 His-tagged) protein (P02554 whole entry partner): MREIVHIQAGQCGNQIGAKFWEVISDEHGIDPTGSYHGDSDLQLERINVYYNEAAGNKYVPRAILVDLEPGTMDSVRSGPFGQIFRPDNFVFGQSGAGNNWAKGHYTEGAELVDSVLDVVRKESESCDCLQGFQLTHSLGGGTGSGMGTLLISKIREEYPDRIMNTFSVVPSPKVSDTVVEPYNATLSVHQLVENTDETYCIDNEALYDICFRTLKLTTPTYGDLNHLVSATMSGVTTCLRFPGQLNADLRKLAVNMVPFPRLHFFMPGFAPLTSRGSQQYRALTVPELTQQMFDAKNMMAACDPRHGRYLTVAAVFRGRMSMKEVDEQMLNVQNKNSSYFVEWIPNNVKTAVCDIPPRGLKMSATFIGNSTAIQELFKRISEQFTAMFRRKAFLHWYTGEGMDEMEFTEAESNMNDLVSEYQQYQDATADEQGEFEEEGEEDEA
Text: KIF18A Enzyme Assay: Microtubule-stimulated ATPase activity assay is used to measure KIF18A enzyme activity after treatment with compound. Compounds were 2-fold serially diluted in DMSO (Sigma Inc) over 22-point concentration range. […] The assay measures ADP formed from the ATPase reaction.
Turning to `Cc1cc(NC(=O)c2ccc(NS(=O)(=O)C3(CO)CC3)cc2N2CCC3(CC2)CC3)nc(N2CC(F)(F)C2)n1` [Example 11-68, N-(2-(3,3-Difluoroazetidin-1-yl)-6-methylpyrimidin-4-yl)-4-((1-(hydroxymethyl)cyclopropane)-1-sulfonamido)-2-(6-azaspiro[2.5]octan-6-yl)benzamide], the IC50 was determined as 53 nM.
The value for `Cc1cc(NC(=O)c2cc(F)c(NS(=O)(=O)CCO)cc2N2CCC3(CC2)CC3)nc(N2CCO[C@H](C)C2)n1` [Example 9-2, (R)-5-Fluoro-4-((2-hydroxyethyl)sulfonamido)-N-(6-methyl-2-(2-methylmorpholino)pyrimidin-4-yl)-2-(6-azaspiro[2.5]octan-6-yl)benzamide] was 158 nM.
The value for `Cc1cc(NC(=O)c2ccc(S(=O)(=O)NC3(C)COC3)cc2N2CCC3(CC2)CC3)nc(NC(C)(C)CO)n1` [Example 1-7, N-(2-((1-Hydroxy-2-methylpropan-2-yl)amino)-6-methylpyrimidin-4-yl)-4-(N-(3-methyloxetan-3-yl)sulfamoyl)-2-(6-azaspiro[2.5]octan-6-yl)benzamide] was 168 nM; that for `Cc1cc(NC(=O)c2cc(F)c(NS(=O)(=O)[C@@H](C)CO)cc2N2CCC3(CC2)CC3)nc(N2CCC(F)(F)CC2)n1` (single isomer, unassigned) [Example 8-2] was 73 nM; that for `O=C(Nc1ccnc(N2CCC(F)(F)CC2)c1)c1ccc(NS(=O)(=O)CCO)cc1N1CCC2(CC1)CC2` [Example 6-29, N-(2-(4,4-Difluoropiperidin-1-yl)pyridin-4-yl)-4-((2-hydroxyethyl)sulfonamido)-2-(6-azaspiro[2.5]octan-6-yl)benzamide] was 17 nM.
On to `Cc1cc(NC(=O)c2cc(C)c(NS(=O)(=O)CCO)cc2N2CCC3(CC2)CC3)nc(N2CCC(F)(F)CC2)n1` [Example 6-35, N-(2-(4,4-Difluoropiperidin-1-yl)-6-methylpyrimdin-4-yl)-4-((2-hydroxyethyl)sulfonamido)-5-methyl-2-(6-azaspiro[2.5]octan-6-yl)benzamide], for which the IC50 is 144 nM.
Regarding `C[C@@H]1CN(c2nc(NC(=O)c3ccc(NS(=O)(=O)CCO)cc3N3CCC4(CC3)CC4)cc(C(C)(C)O)n2)CCO1` [Example 6-40, (R)-4-((2-Hydroxyethyl)sulfonamido)-N-(6-(2-hydroxypropan-2-yl)-2-(2-methylmorpholino)pyrimidin-4-yl)-2-(6-azaspiro[2.5]octan-6-yl)benzamide], the IC50 worked out at 161 nM.
For `O=C(Nc1ccnc(N2CCC(F)(F)CC2)n1)c1ccc(NS(=O)(=O)CCO)cc1N1CCC2(CC1)CC2` [Example 11-57, N-(2-(4,4-Difluoropiperidin-1-yl)pyrimidin-4-yl)-4-((2-hydroxyethyl)sulfonamido)-2-(6-azaspiro[2.5]octan-6-yl)benzamide] the value was 22 nM; for `Cc1cc(NC(=O)c2ccc(NS(=O)(=O)CCO)cc2N2CCC3(CC2)CC3)nc(N2CCCC(F)(F)C2)n1` [Example 11-39, N-(2-(3,3-Difluoropiperidin-1-yl)-6-methylpyrimidin-4-yl)-4-((2-hydroxyethyl)sulfonamido)-2-(6-azaspiro[2.5]octan-6-yl)benzamide], 45 nM; for `C[C@@H](CO)S(=O)(=O)Nc1ccc(C(=O)Nc2ccnc(N3CCC(F)(F)CC3)n2)c(N2CCC3(CC2)CC3)c1` [Example 6-26-1, (S)-N-(2-(4,4-Difluoropiperidin-1-yl)pyrimidin-4-yl)-4-((2-hydroxy-1-methylethyl)sulfonamido)-2-(6-azaspiro[2.5]octan-6-yl)benzamide], 31 nM.
In the case of `Cc1cc(NC(=O)c2ccc(NS(=O)(=O)C3COC3)cc2N2CCC3(CC2)CC3)nc(N2CCC(F)(F)CC2)n1` [Example 6-12, N-(2-(4,4-Difluoropiperidin-1-yl)-6-methylpyrimidin-4-yl)-4-(oxetane-3-sulfonamido)-2-(6-azaspiro[2.5]octan-6-yl)benzamide], the IC50 was 40 nM.
For `Cc1cc(NC(=O)c2ccc(NS(=O)(=O)C3CC3)cc2N2CCC3(CC2)CC3)nc(N2CCC(F)(F)CC2)n1` [Example 6-16, 4-(Cyclopropanesulfonamido)-N-(2-(4,4-difluoropiperidin-1-yl)-6-methylpyrimidin-4-yl)-2-(6-azaspiro[2.5]octan-6-yl)benzamide] the value was 52 nM.
`Cc1cc(NC(=O)c2ccc(NS(=O)(=O)CCO)cc2N2CCC3(CC2)CC3)nc(N2CCO[C@@H](C)C2)n1` [Example 11-45, (S)-4-((2-Hydroxyethyl)sulfonamido)-N-(6-methyl-2-(2-methylmorpholino)pyrimidin-4-yl)-2-(6-azaspiro[2.5]octan-6-yl)benzamide]: the IC50 was 35 nM.
For `CC1(NS(=O)(=O)c2ccc(C(=O)Nc3ccnc(N4CCC(F)(F)CC4)c3)c(N3CCC4(CC3)CC4)c2)COC1` [Example 2-4, N-(2-(4,4-Difluoropiperidin-1-yl)pyridin-4-yl)-4-(N-(3-methyloxetan-3-yl)sulfamoyl)-2-(6-azaspiro[2.5]octan-6-yl)benzamide], the IC50 was found to be 29 nM.
Consider `Cc1cc(NC(=O)c2ccc(NS(=O)(=O)C3(CO)CC3)cc2N2CCC3(CC2)CC3)nc(N2CCC(F)(F)CC2)n1` [Example 11-69], for which the IC50 was found to be 99 nM.
The value for `Cc1cc(NC(=O)c2ccc(NS(=O)(=O)CCO)cc2N2CCC3(CC2)CC3)nc(N2CCC3CC32)n1` (stereo not shown) [Example 11-28, N-(2-(2-Azabicyclo[3.1.0]hexan-2-yl)-6-methylpyrimidin-4-yl)-4-((2-hydroxyethyl)sulfonamido)-2-(6-azaspiro[2.5]octan-6-yl)benzamide] was 59 nM; that for `Cc1cc(NC(=O)c2ccc(NS(=O)(=O)C3CCCC3)cc2N2CCC3(CC2)CC3)nc(N2CCC(F)(F)CC2)n1` [Example 6-10, 4-(Cyclopentanesulfonamido)-N-(2-(4,4-difluoropiperidin-1-yl)-6-methylpyrimidin-4-yl)-2-(6-azaspiro[2.5]octan-6-yl)benzamide] was 2420 nM; that for `CCS(=O)(=O)Nc1ccc(C(=O)Nc2cc(C)nc(N3CCC(F)(F)CC3)n2)c(N2CCC3(CC2)CC3)c1` [Example 6-7, N-(2-(4,4-Difluoropiperidin-1-yl)-6-methylpyrimidin-4-yl)-4-(ethylsulfonamido)-2-(6-azaspiro[2.5]octan-6-yl)benzamide] was 122 nM.
For `Cc1cc(NC(=O)c2ccc(S(C)(=O)=O)cc2N2CCC3(CC2)CC3)nc(NCCO)n1` [Example 1-3, N-(2-((2-Hydroxyethyl)amino)-6-methylpyrimidin-4-yl)-4-(methylsulfonyl)-2-(6-azaspiro[2.5]octan-6-yl)benzamide] the value was 849 nM; for `Cc1cc(NC(=O)c2ccc(NS(=O)(=O)CCO)cc2N2CCC3(CC2)CC3)nc(N2CCCCC2)n1` [Example 11-36, 4-((2-Hydroxyethyl)sulfonamido)-N-(6-methyl-2-(piperidin-1-yl)pyrimidin-4-yl)-2-(6-azaspiro[2.5]octan-6-yl)benzamide], 82 nM.
`Cc1cc(NC(=O)c2ccc(NS(=O)(=O)CC3CC3)cc2N2CCC3(CC2)CC3)nc(N2CCC(F)(F)CC2)n1` [Example 6-18, 4-((Cyclopropylmethyl)sulfon-amido)-N-(2-(4,4-difluoropiperidin-1-yl)-6-methylpyrimidin-4-yl)-2-(6-azaspiro[2.5]octan-6-yl)benzamide]: the IC50 turned out to be 85 nM.
For `Cc1cc(NC(=O)c2ccc(NS(=O)(=O)CCO)cc2N2CCC3(CC2)CC3)nc(OC(C)C)n1` [Example 11-79, 4-((2-Hydroxyethyl)sulfonamido)-N-(2-isopropoxy-6-methylpyrimidin-4-yl)-2-(6-azaspiro[2.5]octan-6-yl)benzamide] the value was 57 nM; for `Cc1cc(NC(=O)c2ccc(NS(=O)(=O)CCO)cc2N2CCC3(CC2)CC3)nc(N2CC(F)(F)C2)n1` [Example 7, N-(2-(3,3-Difluoroazetidin-1-yl)-6-methylpyrimidin-4-yl)-4-((2-hydroxyethyl)sulfonamido)-2-(6-azaspiro[2.5]octan-6-yl)benzamide], 23 nM.
The value for `Cc1cc(NC(=O)c2ccc([S@@](=N)(=O)C3CC3)cc2N2CCC3(CC2)CC3)nc(N2CCO[C@H](C)C2)n1` [Example 19-8, 2-(6-Azaspiro[2.5]octan-6-yl)-4-(R-cyclopropylsulfonimidoyl)-N-(6-methy-2-((2R)-2-methyl-4-moprpholinyl)-4-pyrimidinyl)benzamide] was 78 nM; that for `Cc1cc(NC(=O)c2ccc(NS(=O)(=O)C3CCC3)cc2N2CCC3(CC2)CC3)nc(N2CC(F)(F)C2)n1` [Example 6-13, 4-(Cyclobutanesulfonamido)-N-(2-(3,3-difluoroazetidin-1-yl)-6-methylpyrimidin-4-yl)-2-(6-azaspiro[2.5]octan-6-yl)benzamide] was 52 nM.
Turning to `Cc1cc(NC(=O)c2ccc(NS(=O)(=O)CCO)cc2N2CCC3(CC2)CC3)nc(N2CC(F)C2)n1` [Example 11-5, N-(2-(3-Fluoroazetidin-1-yl)-6-methylpyrimidin-4-yl)-4-((2-hydroxyethyl)sulfonamido)-2-(6-azaspiro[2.5]octan-6-yl)benzamide], the IC50 is 32 nM.
Regarding `C[C@@H]1CN(c2nccc(NC(=O)c3cc(F)c(NS(=O)(=O)CCO)cc3N3CCC4(CC3)CC4)n2)CCO1` [Example 9-1, (R)-5-Fluoro-4-((2-hydroxyethyl)sulfonamido)-N-(2-(2-methylmorpholino)pyrimidin-4-yl)-2-(6-azaspiro[2.5]octan-6-yl)benzamide], the IC50 stood at 78 nM.
For `Cc1cc(NC(=O)c2ccc(NS(=O)(=O)CCO)cc2N2CCC3(CC2)CC3)nc(N2[C@@H](C)COC[C@@H]2C)n1` [Example 11-49, N-(2-((3S,5S)-3,5-Dimethylmorpholino)-6-methylpyrimidin-4-yl)-4-((2-hydroxyethyl)sulfonamido)-2-(6-azaspiro[2.5]octan-6-yl)benzamide] the value was 245 nM.

Broadly, the IC50 is the concentration at which inhibition is half-maximal.

(Values after US11236069B2, “KIF18A inhibitors” (AMGEN INC., priority 2018, dated 2022).)
